Measurements as given in patent publication US20260297095A1, “NOVEL PYRROLOTRIAZINE DERIVATIVE AND USE THEREOF” (Pelemed Co., Ltd., priority 2024, published 2026).

The molecules below were run on KYSE-70 esophageal cancer cell line (assay: Cell growth inhibition of KYSE-70 (Sulforhodamine B)). Conditions: Homo sapiens; KYSE-70, 72 hours; read-out: KYSE70 GI50.
Format: cell-based
Method: The cell line according to the present invention was selected as KYSE-70, an esophageal cancer cell line in which YES1 is amplified. The evaluation of cell growth inhibition was performed as follows.
KYSE-70 was cultured in RPMI-1640 (Capricorn) supplemented with 10% FBS (Cellgro). The cells were seeded 24 hours prior to compound treatment, into three 96-well F-bottom clear plates (Greiner), with 7,500 cells per well in 180 μL of medium. The 10 mM compound was diluted 100-fold in medium to prepare a 100 μM compound, which was then placed into a 96-well plate and further 3-fold diluted in medium to prepare a compound plate with concentrations ranging from 0.046 μM to 100 μM. 20 μL of each compound from the drug plate was added to the cell-seeded plates to achieve final concentrations of 0.0046 μM to 10 μM. At the same time, 50 μL of 33% trichloroacetic acid was injected into one plate and the plate was fixed by incubating at 4° C. This was referred to as the Do plate. Viable cells were measured 72 hours after compound treatment by injecting 50 μL of 33% trichloroacetic acid and incubating at 4° C. for more than 1 hour to fix the cells. This was referred to as the D3 plate. After the Do plate and D3 plates were washed 5 times with sterile water, 100 μL of 0.04% Sulforhodamine B solution in 1% acetic acid was added and reacted for 1 hour to stain the cells. After staining, the plates were washed 4 times with 1% acetic acid solution and completely dried. Then, the Sulforhodamine B bound to cellular proteins was completely dissolved with 10 mM Tris base solution (pH 10.5). The absorbance was measured at a wavelength of 510 nm using a microplate reader (TECAN, sunrise microplate reader). The analysis was performed using GraphPad Prism. The average absorbance of the Do plate was set to 0%, and the average absorbance of the negative control of the D3 plate was set to 100%, from which a graph was drawn and the GI50 values were calculated. Each test was performed twice.

GI50 [µM] | SMILES
≤ 0.1 | CNC1CCN(c2c(C)c(-c3ccc(NC(=O)OC(C)(C)C)c(OC)c3)c3c(N)ncnn23)CC1 [Example 75, tert-butyl (4-(4-amino-6-methyl-7-(4-(methylamino)piperidin-1-yl)pyrrolo[2,1-f][1,2,4]triazin-5-yl)-2-methoxyphenyl)carbamate]
≤ 0.1 | CNC1CCN(CCc2c(C)c(-c3ccc(NC(=O)OC(C)(C)CF)c(OC)c3)c3c(N)ncnn23)CC1 [Example 64, 1-fluoro-2-methylpropan-2-yl (4-(4-amino-6-methyl-7-(2-(4-(methylamino)piperidin-1-yl)ethyl)pyrrolo[2,1-f][1,2,4]triazin-5-yl)-2-methoxyphenyl)carbamate]
0.1 to 1 | COc1cc(-c2cc(N3CCC(N)CC3)n3ccnc(N)c23)ccc1NC(=O)OC(C)(C)C [Example 132, tert-butyl (4-(1-amino-6-(4-aminopiperidin-1-yl)pyrrolo[1,2-a]pyrazin-8-yl)-2-methoxyphenyl)carbamate]
0.1 to 1 | COc1cc(-c2cc(N3CCC(N)CC3)n3ncnc(N)c23)ccc1NC(=O)OC(C)(C)C(F)(F)F [Example 72, 1,1,1-trifluoro-2-methylpropan-2-yl (4-(4-amino-7-(4-aminopiperidin-1-yl)pyrrolo[2,1-f][1,2,4]triazin-5-yl)-2-methoxyphenyl)carbamate]
≤ 0.1 | CCC1(N)CCN(c2cc(-c3ccc(NC(=O)OC(C)(C)C)c(OC)c3)c3c(N)ncnn23)CC1 [Example 82, tert-butyl (4-(4-amino-7-(4-amino-4-ethylpiperidin-1-yl)pyrrolo[2,1-f][1,2,4]triazin-5-yl)-2-methoxyphenyl)carbamate]
≤ 0.1 | COc1cc(-c2c(C)c(N3CCC(N)CC3)n3ncnc(N)c23)ccc1NC(=O)OC(C)(C)CF [Example 60, 1-fluoro-2-methylpropan-2-yl (4-(4-amino-7-(4-aminopiperidin-1-yl)-6-methylpyrrolo[2,1-f][1,2,4]triazin-5-yl)-2-methoxyphenyl)carbamate]
≤ 0.1 | CNCCC1CCN(c2c(C)c(-c3ccc(NC(=O)OC(C)(C)CF)c(OC)c3)c3c(N)ncnn23)CC1 [Example 63, 1-fluoro-2-methylpropan-2-yl (4-(4-amino-6-methyl-7-(4-(2-(methylamino)ethyl)piperidin-1-yl)pyrrolo[2,1-f][1,2,4]triazin-5-yl)-2-methoxyphenyl)carbamate]
0.1 to 1 | COc1cc(-c2cc(NC[C@H]3CC[C@@H](N)C3)n3ncnc(N)c23)ccc1NC(=O)OC(C)(C)C [Example 110, tert-butyl (4-(4-amino-7-((((1S,3R)-3-aminocyclopentyl)methyl)amino)pyrrolo[2,1-f][1,2,4]triazin-5-yl)-2-methoxyphenyl)carbamate]
≤ 0.1 | COc1cc(-c2c(C)c(N3CCC(N(C)C)CC3)n3ncnc(N)c23)ccc1NC(=O)OC(C)(C)CF [Example 62, 1-fluoro-2-methylpropan-2-yl (4-(4-amino-7-(4-(dimethylamino)piperidin-1-yl)-6-methylpyrrolo[2,1-f][1,2,4]triazin-5-yl)-2-methoxyphenyl)carbamate]
≤ 0.1 | COc1cc(-c2cc(CCN3CCC(N)CC3)n3ncnc(N)c23)ccc1NC(=O)OC(C)(C)CF [Example 68, 1-fluoro-2-methylpropan-2-yl (4-(4-amino-7-(2-(4-aminopiperidin-1-yl)ethyl)pyrrolo[2,1-f][1,2,4]triazin-5-yl)-2-methoxyphenyl)carbamate]
0.1 to 1 | CNC1CCN(c2cc(-c3ccc(NC(=O)OC(C)(C)C)c(OC)c3)c3c(N)nccn23)CC1 [Example 133, tert-butyl (4-(1-amino-6-(4-(methylamino)piperidin-1-yl)pyrrolo[1,2-a]pyrazin-8-yl)-2-methoxyphenyl)carbamate]
≤ 0.1 | CNC1CCN(CCc2c(F)c(-c3ccc(NC(=O)OC(C)(C)C)c(OC)c3)c3c(N)ncnn23)CC1 [Example 130, tert-butyl (4-(4-amino-6-fluoro-7-(2-(4-(methylamino)piperidin-1-yl)ethyl)pyrrolo[2,1-f][1,2,4]triazin-5-yl)-2-methoxyphenyl)carbamate]
≤ 0.1 | COc1cc(-c2c(Cl)c(N3CCC(N(C)C)CC3)n3ncnc(N)c23)ccc1NC(=O)OC(C)(C)C [Example 124, tert-butyl (4-(4-amino-6-chloro-7-(4-(dimethylamino)piperidin-1-yl)pyrrolo[2,1-f][1,2,4]triazin-5-yl)-2-methoxyphenyl)carbamate]
≤ 0.1 | CNCCC1CCN(c2c(F)c(-c3ccc(NC(=O)OC(C)(C)C)c(OC)c3)c3c(N)ncnn23)CC1 [Example 131, tert-butyl (4-(4-amino-6-fluoro-7-(4-(2-(methylamino)ethyl)piperidin-1-yl)pyrrolo[2,1-f][1,2,4]triazin-5-yl)-2-methoxyphenyl)carbamate]
> 10 | COc1cc(-c2cc(N3CCC(C(N)=O)CC3)n3ncnc(N)c23)ccc1NC(=O)OC(C)(C)C [Example 97, tert-butyl (4-(4-amino-7-(4-carbamoylpiperidin-1-yl)pyrrolo[2,1-f][1,2,4]triazin-5-yl)-2-methoxyphenyl)carbamate]
